Patent publication US12023323B2, “Carbohydrate-binding small molecules with antiviral activity” (priority 2018, dated 2024)
Entries after “also recorded” stand apart in the source; their conditions may differ. Where a name gives a salt, the structure may show the parent alone. Read-outs that look alike come from different tables or passages of the source.

Assays:
[1] = 1H NMR titration with octyloxy pyranoside β-Man; format: binding; design: key to Ka (M^−1) with β-Man: No detectable binding; conditions: for Ka (M^−1) with β-Man: NMR titrations in CD2Cl2 at 298 K
[2] = 1H NMR titration with octyloxy pyranoside α-Man; format: binding; design: key to Ka (M^−1) with α-Man: No detectable binding; conditions: for Ka (M^−1) with α-Man: NMR titrations in CD2Cl2 at 298 K; for affinity for α-Man relative to SCR001: fold / ratio SCR:SCR001
[3] = Selectivity across the five octyloxy pyranosides from NMR titrations; format: binding; conditions: for binding profile across the glycans in words / glycan preference in words: five octyloxy pyranosides, CD2Cl2, 298 K; for affinity for β-Glc over α-Man: times
Vero cells = test: Cellular toxicity, CellTiter-Glo, Vero cells; conditions: for CC50: read-out: TC50, Table 1, 72 h, CellTiter-Glo
HeLa cells = test: Cellular toxicity, CellTiter-Glo, HeLa cells; conditions: read-out: TC50, Table 2, 72 h
[4] = 1H NMR titration with octyloxy pyranoside β-Glc; format: binding; conditions: for K1 (1:1 association constant) with β-Glc: CD2Cl2, 298 K; for affinity for β-Glc relative to SCR001: fold / ratio SCR:SCR001
[5] = 1H NMR titration with octyloxy pyranoside α-Glc; format: binding; conditions: NMR titrations
[6] = 1H NMR titration with octyloxy pyranoside β-Gal; format: binding; conditions: NMR titrations
ZIKV GFP RVPs [7] = test system: ZIKV GFP RVPs
ZIKV GFP RVPs [8] = test: microbe, parasite or virus in culture; conditions: Zika virus, Vero
[9] = Cellular toxicity, CellTiter-Glo, Vero cells; conditions: African green monkey
ZIKV RVPs = test: microbe, parasite or virus in culture; format: cell-based, Zika virus; conditions: for IC50: Zika virus, HeLa
HIV-1 = conditions: cell culture; cited from earlier work
[10] = Table 3, Vero cells, ZIKV RVPs, average of at least two independent measurements
[11] = Table 3 study, Vero cells, ZIKV RVPs, unit μm [sic]
[12] = read-out: IC50 (strong antiviral activity), Vero cells, ZIKV RVPs
[13] = Table 1, Vero cells, compounds 30 min before ZIKV RVPs, GFP+ cells 72 h postinfection

## c1c[nH]c(CNCc2cc(CNCc3ccc[nH]3)cc(-c3cc(CNCc4ccc[nH]4)cc(Cn4cc(COCCOCCOCCOCc5cn(Cc6cc(CNCc7ccc[nH]7)cc(-c7cc(CNCc8ccc[nH]8)cc(CNCc8ccc[nH]8)c7)c6)nn5)nn4)c3)c2)c1 [SCR012]
[1]; 1:1 binding
  Ka (M^−1) with β-Man: 1700 M⁻¹
[2]; 1:1 binding
  Ka (M^−1) with α-Man: 2600 M⁻¹
[3]
  binding profile across the glycans in words: promiscuous; also recorded: bind all five glycans
Vero cells
  CC50: 36.2 µM
HeLa cells
  CC50: 2.48 µM

## Oc1ccccc1CNCc1cc(CNCc2ccccc2O)cc(-c2cc(CNCc3ccccc3O)cc(CNCc3ccccc3O)c2)c1 [SCR022, 2,2′,2″,2′″-((([1,1′-biphenyl]-3,3′,5,5′-tetrayltetrakis(methylene))tetrakis(azanediyl))tetrakis(methylene))tetraphenol]
[2]; 1:1 binding
  Ka (M^−1) with α-Man: 280 M⁻¹
[4]; 2:1 SCR·glycan complexes
  K2 (2:1 SCR·glycan association constant) with β-Glc: 690 M⁻¹
  cumulative association constant β with β-Glc: 8.1×10^4 M^−2
[4]
  K1 (1:1 association constant) with β-Glc: 120 M⁻¹
  affinity for β-Glc relative to SCR001: 62
[5]
  binding to α-Glc in words: no substantial binding
[6]
  binding to β-Gal in words: no substantial binding
[3]
  glycan preference in words: prefer β-Glc
  affinity for β-Glc over α-Man: 290
ZIKV GFP RVPs [7]; Table 3, Vero cells
  therapeutic index (TC50/IC50): 2
ZIKV GFP RVPs [7]; Vero cells, ZIKV RVPs
  anti-ZIKV activity in words: potent anti-ZIKV activity
ZIKV GFP RVPs [8]; [10]
  IC50: 2.5 ± 0.6 µM
ZIKV GFP RVPs [8]; [11]
  IC50: < 5 µM
ZIKV GFP RVPs [8]; [12]
  IC50: < 5 µM
[9]
  CC50 at 72 h: 4.6 ± 1.1 µM
Vero cells
  cellular toxicity in words: toxic to Vero cells

## c1ccc2c(CNCc3cc(CNCc4c[nH]c5ccccc45)cc(-c4cc(CNCc5c[nH]c6ccccc56)cc(CNCc5c[nH]c6ccccc56)c4)c3)c[nH]c2c1 [SCR019, 1,1′,1″,1′″-([1,1′-biphenyl]-3,3′,5,5′-tetrayl)tetrakis(N-((1H-indol-3-yl)methyl)methanamine)]
[1]; 1:2 SCR·glycan binding model
  cumulative association constant β=K1×K2 with β-Man: 7.4×10^4 M^−2
[1]; 1:2 SCR·glycan, unit M^2
  cumulative association constant β with β-Man: 7.4×10^4 M^2
[1]; CD2Cl2, 298 K
  K1 (1:1 association constant) with β-Man: 2.3 M⁻¹
[1]; CD2Cl2, 298 K, 1:2 SCR·glycan binding model
  K2 (1:2 SCR·glycan association constant) with β-Man: 32000 M⁻¹
[1]; SCR019:SCR001
  affinity for β-Man relative to SCR001: 2
[2]; 1:1 binding
  Ka (M^−1) with α-Man: 290 M⁻¹
[5]
  binding to α-Glc in words: no substantial binding
[3]
  glycan preference in words: prefers β-Man; also recorded: selective for Mannosides with a preference for the β-anomer
[3]; fold
  affinity for β-Man over α-Man: 250
ZIKV GFP RVPs [7]; Table 3, Vero cells
  therapeutic index (TC50/IC50): 153
ZIKV GFP RVPs [8]; [10]
  IC50: 0.26 µM
ZIKV GFP RVPs [8]; [12]
  IC50: < 5 µM
[9]
  CC50 at 72 h: 39.8 ± 1.7 µM
Vero cells
  cellular toxicity in words: minimal cellular toxicity; also recorded: low off-site toxicity

## NCc1cc(CN)cc(-c2cc(CN)cc(CN)c2)c1 [Compound 2, [1,1′-biphenyl]-3,3′,5,5′-tetrayltetramethanamine tetrahydrochloride]
ZIKV GFP RVPs [8]; [13]
  IC50: > 100 µM

## O=C(NCc1cc(CNC(=O)c2cccs2)cc(-c2cc(CNC(=O)c3cccs3)cc(CNC(=O)c3cccs3)c2)c1)c1cccs1 [SCR008, N,N,N′,N″-([1,1′-biphenyl]-3,3′,5,5′-tetrayltetrakis(methylene))tetrakis(thiophene-2-carboxamide)]
ZIKV GFP RVPs [7]
  IC50: > 100 µM
  anti-ZIKV activity in words: not effective

## c1ccc2[nH]c(CNCc3cc(CNCc4cc5ccccc5[nH]4)cc(-c4cc(CNCc5cc6ccccc6[nH]5)cc(CNCc5cc6ccccc6[nH]5)c4)c3)cc2c1 [SCR018, 1,1′,1″,1′″-([1,1′-biphenyl]-3,3′,5,5′-tetrayl)tetrakis(N-((1H-indol-2-yl)methyl)methanamine)]
[2]; 2-indole vs 3-indole
  fold selectivity for α-Man, SCR019 compared to SCR018: 36
[2]; 1:1 binding
  Ka (M^−1) with α-Man: 11000 M⁻¹
[2]
  affinity for α-Man relative to SCR001: 10
[4]; NMR peak shifting upon mixing
  binding to β-Glc in words: no substantial binding
[3]
  glycan preference in words: uniquely bind α-Man; also recorded: specific for α-Man
ZIKV GFP RVPs [7]; Table 3, Vero cells
  therapeutic index (TC50/IC50): 2
ZIKV GFP RVPs [7]; Vero cells, ZIKV RVPs
  anti-ZIKV activity in words: weaker inhibition
[9]
  CC50 at 72 h: 29.8 ± 5 µM

## c1coc(CNCc2cc(CNCc3ccco3)cc(-c3cc(CNCc4ccco4)cc(CNCc4ccco4)c3)c2)c1 [SCR002, 1,1′,1″,1′″-([1,1′-biphenyl]-3,3′,5,5′-tetrayl)tetrakis(N-(furan-2-ylmethyl)methanamine)]
ZIKV RVPs; HeLa cells, ZIKV RVPs
  anti-ZIKV activity in words: more potent than SCR001
ZIKV RVPs
  IC50: 0.35 ± 0.09 µM
[1]; 1:1 binding
  Ka (M^−1) with β-Man: 54 M⁻¹
[2]; 1:1 binding
  Ka (M^−1) with α-Man: 1400 M⁻¹
[3]
  binding profile across the glycans in words: measurable binding with only β-Glc, β-Man and α-Man; also recorded: binds only β-Glc, β-Man, and α-Man
  glycan preference in words: preference for α-Man; also recorded: selective for α-Man
ZIKV GFP RVPs [7]; Vero cells, ZIKV RVPs
  anti-ZIKV activity in words: less potent
ZIKV GFP RVPs [8]; [13]
  IC50: 1.13 ± 0.23 µM
Vero cells
  CC50: 5.43 µM
HeLa cells
  CC50: 2.51 µM

## c1csc(CNCc2cc(CNCc3cccs3)cc(-c3cc(CNCc4cccs4)cc(CNCc4cccs4)c3)c2)c1 [SCR003, 1,1′,1″,1′″-([1,1′-biphenyl]-3,3′,5,5′-tetrayl)tetrakis(N-(thiophen-2-ylmethyl)methanamine)]
ZIKV RVPs
  IC50: 0.56 ± 0.08 µM
[1]
  Ka (M^−1) with β-Man: c
[1]; 1:1 binding
  Ka (M^−1) with β-Man: < 30 M⁻¹
[2]
  Ka (M^−1) with α-Man: c
[3]
  binding profile across the glycans in words: only had measurable binding with β-Glc, and α-Man; also recorded: binds only β-Glc and α-Man
  glycan preference in words: preference for α-Man; also recorded: selective for α-Man
ZIKV GFP RVPs [7]; Vero cells, ZIKV RVPs
  anti-ZIKV activity in words: less potent
ZIKV GFP RVPs [8]; [13]
  IC50: 1.31 µM
Vero cells
  CC50: 4.12 µM
HeLa cells
  CC50: 2.47 µM

## c1cc(CNCc2cc(CNCc3cc[nH]c3)cc(-c3cc(CNCc4cc[nH]c4)cc(CNCc4cc[nH]c4)c3)c2)c[nH]1 [SCR017, 1,1′,1″,1′″-([1,1′-biphenyl]-3,3′,5,5′-tetrayl)tetrakis(N-((1H-pyrrol-3-yl)methyl)methanamine)]
[4]; 1:2 SCR·glycan complexes
  K2 (1:2 SCR·glycan association constant) with β-Glc: 6800 M⁻¹
  cumulative association constant β with β-Glc: 8.4×10^1 M^−2
[4]; 1:2 SCR·glycan, unit M^2
  cumulative association constant β with β-Glc: 8.4×10^1 M^2
[4]
  K1 (1:1 association constant) with β-Glc: 1.2 M⁻¹
  affinity for β-Glc relative to SCR001: 7
[3]
  glycan preference in words: prefers β-Glc; also recorded: specific for β-Glc
ZIKV GFP RVPs [7]; SCR023 vs SCR022, SCR017 vs SCR001
  IC50 relative to regioisomer: four times higher
ZIKV GFP RVPs [7]; Table 3, Vero cells
  therapeutic index (TC50/IC50): 66
ZIKV GFP RVPs [7]; Vero cells, ZIKV RVPs
  anti-ZIKV activity in words: potent anti-ZIKV activity
ZIKV GFP RVPs [8]; [10]
  IC50: 4.8 ± 0.4 µM
ZIKV GFP RVPs [8]; [11]
  IC50: < 5 µM
ZIKV GFP RVPs [8]; [12]
  IC50: < 5 µM
[9]
  CC50 at 72 h: 316 ± 18 µM

## CN[C@@H]1[C@H](O[C@@H]2OC[C@@H](O)[C@H](O)[C@H]2O)[C@@H](O)[C@H](O[C@H]2c3cc(C)c(C(=O)N[C@H](C)C(=O)O)c(O)c3-c3c(cc4c(c3O)C(=O)c3cc(OC)cc(O)c3C4=O)[C@@H]2O)O[C@@H]1C [pradimicin A]
HIV-1
  50% effective concentration against HIV-1: micromolar concentration range

## COc1cc(O)c2c(c1)C(=O)c1c(cc3c(c1O)-c1c(cc(C)c(C(=O)N[C@H](C)C(=O)O)c1O)[C@H](O[C@@H]1O[C@H](C)[C@H](O)[C@H](O[C@@H]4OC[C@@H](O)[C@H](O)[C@H]4O)[C@H]1O)[C@H]3O)C2=O [benanomicin A]
HIV-1
  50% effective concentration against HIV-1: micromolar concentration range

## c1cncc(CNCc2cc(CNCc3cccnc3)cc(-c3cc(CNCc4cccnc4)cc(CNCc4cccnc4)c3)c2)c1 [SCR021, 1,1′,1″,1′″-([1,1′-biphenyl]-3,3′,5,5′-tetrayl)tetrakis(N-(pyridin-3-ylmethyl)methanamine)]
[2]; 1:1 binding
  Ka (M^−1) with α-Man: 490 M⁻¹
[4]; 1:2 SCR·glycan complexes
  K2 (1:2 SCR·glycan association constant) with β-Glc: 12000 M⁻¹
  cumulative association constant β with β-Glc: 3.3×10^4 M^−2
[4]
  K1 (1:1 association constant) with β-Glc: 2.7 M⁻¹
  affinity for β-Glc relative to SCR001: 25
[5]
  binding to α-Glc in words: no substantial binding
[6]
  binding to β-Gal in words: no substantial binding
[3]
  glycan preference in words: prefer β-Glc
  affinity for β-Glc over α-Man: 67
ZIKV GFP RVPs [8]; [10]
  IC50: > 100 µM
ZIKV GFP RVPs [8]; [11]
  IC50: > 100 µM

## c1ccc(CNCc2cc(CNCc3ccccn3)cc(-c3cc(CNCc4ccccn4)cc(CNCc4ccccn4)c3)c2)nc1 [SCR020, 1,1′,1″,1′″-([1,1′-biphenyl]-3,3′,5,5′-tetrayl)tetrakis(N-(pyridin-2-ylmethyl)methanamine)]
[2]; 1:2 SCR·glycan binding model
  K2 (1:2 SCR·glycan association constant) with α-Man: 11 M⁻¹
  cumulative association constant β with α-Man: 2.8×10^5 M^−2
[2]; 1:2 SCR·glycan, unit M^2
  cumulative association constant β with α-Man: 2.8×10^5 M^2
[2]; CD2Cl2, 298 K
  K1 (1:1 association constant) with α-Man: 260 M⁻¹
[2]
  affinity for α-Man relative to SCR001: 200
[2]; times
  change in affinity for α-Man, SCR020 and SCR021: 570
[3]
  glycan preference in words: uniquely bind α-Man; also recorded: specific for α-Man
ZIKV GFP RVPs [7]; Table 3, Vero cells
  therapeutic index (TC50/IC50): 9
ZIKV GFP RVPs [7]; [10]
  IC50: 19.9 ± 14.4 µM
ZIKV GFP RVPs [7]; Vero cells, ZIKV RVPs
  anti-ZIKV activity in words: weaker inhibition
ZIKV GFP RVPs [8]; [10]
  IC50: < 20 µM
[9]
  CC50 at 72 h: 178 ± 99 µM
